Assay results taken from the NIST ThermoML archive (doi:10.1021/acs.jced.8b00403).

Assay: wn = mass fraction of the nth substance listed
Conditions: 101.33 kPa, Liquid; for viscosity: Concentric cylinders viscometry; for mass density: Vibrating tube method

CC(O)CO (configuration not stated) [1,2-propanediol] + O
Conditions	mass density [kg/m3]	viscosity [mPa·s]
253.15 K, w1 = 0.5005	1062.5	84.94
253.15 K, w1 = 0.672	1070.8	204.36
253.15 K, w1 = 0.8044	1071.6	415.71
253.15 K, w1 = 0.9481	1068.2	1067
253.15 K, w1 = 1	1065.8	1772.4
258.15 K, w1 = 0.3312	1041.7	21.95
258.15 K, w1 = 0.5005	1059.8	55.34
258.15 K, w1 = 0.672	1067.6	128.54
258.15 K, w1 = 0.8044	1068.1	256.2
258.15 K, w1 = 0.9481	1064.7	638.89
258.15 K, w1 = 1	1062.2	1038.3
263.15 K, w1 = 0.3312	1040	15.59
263.15 K, w1 = 0.5005	1056.9	37.52
263.15 K, w1 = 0.672	1064.3	84.22
263.15 K, w1 = 0.8044	1064.5	164.62
263.15 K, w1 = 0.9481	1061	396.61
263.15 K, w1 = 1	1058.6	631.08
268.15 K, w1 = 0.198	1021.7	5.78
268.15 K, w1 = 0.3312	1038.15	11.45
268.15 K, w1 = 0.5005	1054	26.37
268.15 K, w1 = 0.672	1060.9	57.22
268.15 K, w1 = 0.8044	1061.1	109.37
268.15 K, w1 = 0.9481	1057.4	254.76
268.15 K, w1 = 1	1054.9	396.99
273.15 K, w1 = 0.0988	1009.8	2.877
273.15 K, w1 = 0.198	1020.8	4.552
273.15 K, w1 = 0.3312	1036.3	8.655
273.15 K, w1 = 0.5005	1051.1	19.12
273.15 K, w1 = 0.672	1057.5	40.16
273.15 K, w1 = 0.8044	1057.6	75.05
273.15 K, w1 = 0.9481	1053.8	169.13
273.15 K, w1 = 1	1051.3	258
283.15 K, w1 = 0.0988	1008.2	1.991
283.15 K, w1 = 0.198	1017.8	3.017
283.15 K, w1 = 0.3312	1031.2	5.306
283.15 K, w1 = 0.5005	1044.6	10.83
283.15 K, w1 = 0.672	1050.5	21.24
283.15 K, w1 = 0.8044	1050.4	38.42
283.15 K, w1 = 0.9481	1045.6	86.69
283.15 K, w1 = 1	1042.9	116.68
293.15 K, w1 = 0.0988	1005.7	1.454
293.15 K, w1 = 0.198	1014.5	2.171
293.15 K, w1 = 0.3312	1026.3	3.536
293.15 K, w1 = 0.5005	1038.1	6.741
293.15 K, w1 = 0.672	1043.2	12.58
293.15 K, w1 = 0.8044	1042.9	21.75
293.15 K, w1 = 0.9481	1038.2	45.66
293.15 K, w1 = 1	1035.5	59.75
303.15 K, w1 = 0.0988	1002.6	1.148
303.15 K, w1 = 0.198	1010.6	1.599
303.15 K, w1 = 0.3312	1021	2.503
303.15 K, w1 = 0.5005	1031.4	4.51
303.15 K, w1 = 0.672	1035.9	8.01
303.15 K, w1 = 0.8044	1035.4	13.28
303.15 K, w1 = 0.9481	1030.8	26.09
303.15 K, w1 = 1	1028.1	33.26
313.15 K, w1 = 0.0988	999	0.9194
313.15 K, w1 = 0.198	1006	1.241
313.15 K, w1 = 0.3312	1015.3	1.858
313.15 K, w1 = 0.5005	1024.5	3.166
313.15 K, w1 = 0.672	1028.4	5.398
313.15 K, w1 = 0.8044	1027.8	8.638
313.15 K, w1 = 0.9481	1023.2	16
313.15 K, w1 = 1	1020.6	19.92
323.15 K, w1 = 0.0988	994.4	0.7541
323.15 K, w1 = 0.198	1000.8	0.9933
323.15 K, w1 = 0.3312	1009.2	1.436
323.15 K, w1 = 0.5005	1017.4	2.345
323.15 K, w1 = 0.672	1020.8	3.852
323.15 K, w1 = 0.8044	1020.1	5.938
323.15 K, w1 = 0.9481	1015.6	10.4
323.15 K, w1 = 1	1013	12.68
333.15 K, w1 = 0.0988	989.3	0.6304
333.15 K, w1 = 0.198	995.4	0.8167
333.15 K, w1 = 0.3312	1002.7	1.145
333.15 K, w1 = 0.5005	1010	1.802
333.15 K, w1 = 0.672	1013	2.852
333.15 K, w1 = 0.8044	1012.2	4.247
333.15 K, w1 = 0.9481	1007.8	7.094
333.15 K, w1 = 1	1005.3	8.498
343.15 K, w1 = 0.0988	983.5	0.5375
343.15 K, w1 = 0.198	989.2	0.6869
343.15 K, w1 = 0.3312	996	0.9408
343.15 K, w1 = 0.5005	1002.3	1.425
343.15 K, w1 = 0.672	1004.9	2.188
343.15 K, w1 = 0.8044	1004.1	3.161
343.15 K, w1 = 0.9481	999.8	5.053
343.15 K, w1 = 1	997.7	5.95
353.15 K, w1 = 0.0988	977.2	0.4666
353.15 K, w1 = 0.198	982.5	0.5856
353.15 K, w1 = 0.3312	988.9	0.7888
353.15 K, w1 = 0.5005	994.6	1.162
353.15 K, w1 = 0.672	996.9	1.733
353.15 K, w1 = 0.8044	996	2.433
353.15 K, w1 = 0.9481	991.9	3.734
353.15 K, w1 = 1	989.5	4.332
